The nature of series [1]: Log P by HPLC on reversed phase columns (EEC directive 79/831 Annex V.A8). The note with it: reversed phase HPLC columns. In kind it is physicochemical. The gist of the method: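 Values come from retention times calibrated against alkan-2-ones (3–16 carbons) by linear interpolation, using reversed-phase LC-UV per EEC directive 79/831 Annex V.A8. Acetonitrile gradient 10–95% with 0.1% formic acid [a], 0.001 M ammonium acetate [b] or 0.1% phosphoric acid [c]; several values within one method separated by "+".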

Series [2] has as its system Xanthomonas campestris pv. campestris. Nature of the series: Example P: Xanthomonas campestris pv. campestris in vitro cell test, formula (II). The class given is cell-based. The note with it: 20 ppm of active ingredient, 24 h incubation, read-out: efficacy (inhibition of bacteria growth; no direct activity). The procedure:
• Solvent: DMSO • Culture medium: LB broth medium (Luria Broth Miller) Sigma • Inoculum: bacteria suspension
Compounds were solubilized in DMSO and the solution used to prepare the required range of concentrations. The final concentration of DMSO used in the assay was ≤1%.
Inoculum was prepared from a pre-culture of bacteria grown in liquid medium and diluted to the desired optical density (OD).
Compounds were evaluated for their ability to inhibit bacteria growth in liquid culture assay. The compounds were added in the desired concentrations to culture medium containing the bacteria suspension. After 24 h of incubation, the efficacy of compounds was determined by spectrometric measurement of bacteria growth. Inhibition was determined by comparing the absorbance values in wells containing the compounds with the absorbance in control wells without active ingredients.

Series [3] concerns Colletotrichum lindemuthianum. The series is described as follows: Example O: Colletotrichum lindemuthianum in vitro cell test, formula (II). The class given is cell-based. To be noted: 144 h, 6 days incubation, read-out: efficacy (inhibition of fungal growth; no direct activity); for inhibition at 10 ppm: 10 ppm of active ingredient; for inhibition at 20 ppm: 20 ppm of active ingredient. The procedure: • Solvent: DMSO • Culture medium: 14.6 g anhydrous D-glucose (VWR), 7.1 g Mycological Peptone (Oxoid), 1.4 g granulated Yeast Extract (Merck), QSP 1 liter • Inoculum: spores suspension Fungicides were solubilized in DMSO and the solution used to prepare the required range of concentrations. The final concentration of DMSO used in the assay was: ≤[…]1%. A spore suspension of C. lindemuthianum was prepared and diluted to the desired spore density. Fungicides were evaluated for their ability to inhibit spores germination and mycelium growth in liquid culture assay. The compounds were added in the desired concentration to the culture medium with spores. After 6 days incubation, fungi-toxicity of compounds was determined by spectrometric measurement of mycelium growth. Inhibition of fungal growth was determined by comparing the absorbance values in wells containing the fungicides with the absorbance in control wells without fungicides.

The test system of series [4] is salicylate responsive promoter sequence of the PR1 (pathogenesis-related protein I) gene (AT2G14610). Nature of the series: Example A: induction of defense gene expression in Arabidopsis thaliana (PR1 promoter-GFP reporter plants), formula (I). The class given is in vivo. The note with it: 300 ppm, 3rd day after spraying, mock treated leaves = 1.00. The procedure: (§1) Arabidopsis thaliana reporter plants containing the coding sequence of a green fluorescent protein (GFP) linked to the salicylate responsive promoter sequence of the PR1 (pathogenesis-related protein I) gene (AT2G14610) were grown for five days and then sprayed with compounds. On the 3rd day after spraying, plant fluorescence was assessed with a MacroFluo instrument from Leica Microsystems (Wetzlar, Germany). Fluorescences were quantified with the Meta-Morph Microscopy Automation & Image Analysis Software (Molecular Devices, Sunnyvale, Calif., United States).
(§2) Background fluorescence in mock treated leaves was set as 1.00.

Series [5] shares this test system. The series is described as follows: Example K: induction of defense gene expression in Arabidopsis thaliana (PR1 promoter-GFP reporter plants), formula (II). The class given is in vivo. To be noted: 300 ppm, 3rd day after spraying, mock treated leaves = 1.00. The procedure: as §1, §2
The mark [6] stands for this setting: method [a]: LC-UV, acidic range, 0.1% formic acid in water and acetonitrile.
Where [7] appears, read: value in preparation example, method not marked.

This note sets out measurements from patent publication US12642270B2, “Substituted thiophene carboxamides, thiophene carboxylic acids and derivatives thereof” (Bayer Aktiengesellschaft, priority 2019, dated 2026).

Usually chromatographic logP stands for lipophilicity estimated from chromatographic retention. Read a high chromatographic logP as a more lipophilic compound. By inhibition is commonly meant the percentage by which the read-out fell short of the control. Turning to `COC(=O)c1sc(Cl)c(C#N)c1C` [II.028, methyl 5-chloro-4-cyano-3-methylthiophene-2-carboxylate], the chromatographic logP in series [1] (setting [6]) worked out at 2.98; in series [1] (setting [7]) it was 3.01. For the same molecule, the inhibition at 20 ppm in series [2] and in series [3] was at most 30% each time. Besides, in series [3], the inhibition at 10 ppm is at most 30%.
The molecule `Cc1c(C(=O)O)sc(C#N)c1Br` [II.042, 4-bromo-5-cyano-3-methylthiophene-2-carboxylic acid] showed a chromatographic logP in series [1] (setting [6]) of 2.01. Also, the inhibition at 20 ppm in series [2] was at most 30%. In series [3], the inhibition at 10 ppm is at most 30% and the inhibition at 20 ppm is at most 30%.
Turning to `COC(=O)c1cc(Cl)c(C#N)s1` [II.046, methyl 4-chloro-5-cyanothiophene-2-carboxylate], the chromatographic logP in series [1] (setting [6]) and in series [1] (setting [7]) was 2.52 throughout. The inhibition at 20 ppm in series [2] and in series [3] was at most 30% throughout. The inhibition at 10 ppm in series [3] is at most 30%.
For `COC(=O)c1sc(Cl)c(Cl)c1C#N` [II.085, methyl 4,5-dichloro-3-cyanothiophene-2-carboxylate], the chromatographic logP in series [1] (setting [6]) and in series [1] (setting [7]) was 2.98 throughout. The inhibition at 20 ppm in series [2] and in series [3] was at most 30% each time. The inhibition at 10 ppm in series [3] was at most 30%.
Take `O=C(O)c1ccccc1O` [Salicylic acid]: the relative fluorescence value in series [4] and in series [5] was 2.70 each time.
